Measurements taken from publication PMC10503797, “Allosteric modulator potentiates β2AR agonist–promoted bronchoprotection in asthma models” (The Journal of Clinical Investigation, 2023).
Where “and” joins values, the source holds several entries; their conditions need not be identical. Equal values may be shown once. Read-outs that look alike come from different tables or passages of the source.

Legend:
guinea pig lung slices = experiment: Methacholine-induced airway constriction in guinea pig lung slices; format: cell-based; conditions: for MCh-induced airway constriction response (Figure 5D): Exp1-6; for EC50: Cavia porcellus
Description: All curve fits were generated using the software program GraphPad Prism. Data are represented as mean ± SEM obtained from 6 guinea pigs.
(§1) Precision-cut lung slices were prepared as described previously ([61], [62]). A 3% solution of low melting-point agarose (Gerbu Biotechnik GmbH) in ultrapure water was prepared by heating it a microwave until fully dissolved. […] After filling, the lungs were covered with ice for 30 minutes to solidify the agarose for slicing. […] Lung slices were cut at a thickness of 500 μm and washed several times with slicing buffer to remove debris and washout the isoproterenol. Slices were incubated overnight in a 60 mm dish in sterile incubation buffer: MEM composed of lung slice buffer supplemented with 0.5 mM sodium pyruvate, 1 mM glutamine (Gibco), MEM-amino acids mixture (1:50), MEM-vitamins mixture (1:100; Gibco), and penicillin-streptomycin (1:100; Gibco), pH = 7.2, at 37°C in a CO2- and humidity-controlled atmosphere.
(§2) After washing the slices in medium, individual guinea pig lung slices were mechanically maintained with a Teflon ring with an inner diameter of 7 mm and covered with 1 mL of incubation buffer. […] Image acquisition software (NIS-Elements, Nikon) was used to quantify airway luminal area. Images of the airways were acquired every 2 seconds during the whole course of the experiment, starting 2 minutes before the addition of any agent to allow for baseline measurements of the airway caliber. For each methacholine or ovalbumin concentration, the maximal airway constriction was expressed as percentage of the initial (baseline) airway luminal area and plotted against that concentration.

guinea pig β2AR = guinea pig β2AR (Cavia porcellus, UniProt Q8K4Z4); experiment: 125I-CYP radioligand competition binding, guinea pig β2AR; conditions: DMSO, listed as FEN
guinea pig β2AR, sequence (Q8K4Z4 whole entry): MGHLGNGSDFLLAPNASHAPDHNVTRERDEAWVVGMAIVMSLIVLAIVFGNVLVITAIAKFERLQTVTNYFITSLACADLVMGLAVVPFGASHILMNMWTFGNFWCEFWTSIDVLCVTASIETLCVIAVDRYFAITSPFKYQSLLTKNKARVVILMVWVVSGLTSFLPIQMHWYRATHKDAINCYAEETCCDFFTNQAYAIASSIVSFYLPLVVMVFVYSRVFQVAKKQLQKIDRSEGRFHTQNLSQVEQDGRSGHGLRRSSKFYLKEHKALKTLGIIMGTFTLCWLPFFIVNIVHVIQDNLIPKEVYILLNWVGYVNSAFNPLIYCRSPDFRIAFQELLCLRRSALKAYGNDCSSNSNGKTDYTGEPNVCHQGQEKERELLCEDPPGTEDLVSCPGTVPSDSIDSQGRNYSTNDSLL

[1] = tested on: lung slices obtained from ovalbumin-sensitized guinea pigs; experiment: Ovalbumin-induced airway constriction in lung slices from ovalbumin-sensitized guinea pigs; format: cell-based, guinea pig; conditions: 0.1 µM Fenoterol, Exp1-5
Description: All curve fits were generated using the software program GraphPad Prism. Data are represented as mean ± SEM of 4–5 guinea pigs (see Table 2 for statistical analyses).
Outbred, male, specified pathogen-free Dunkin Hartley guinea pigs (Charles River Laboratory) weighing 200 to 400 g were used. The animals were housed in pairs under a 12-hour light/dark cycle in a temperature- and humidity-controlled room with food and tap water ad libitum. For studies in the guinea pig model of allergic asthma, animals were actively IgE-sensitized to ovalbumin by injecting a suspension containing 100 μg/mL ovalbumin and 100 mg/mL Al(OH)3 in saline. Each animal was injected with 1.0 mL of suspension: 0.5 mL was injected i.p. and 0.5 mL was divided over 7 s.c. sites close to lymph nodes in the neck, paws, and lumbar regions ([24]). Animals were euthanized at least 4 weeks after sensitization.
as §1, §2

[2] = 10 µM Fenoterol, -Log [MCh] 6.5
[3] = 10 µM Fenoterol, -Log [MCh] 7.5

## CC(Cc1ccc(O)cc1)NCC(O)c1cc(O)cc(O)c1 (centres unmarked) [Fenoterol, fenoterol]
Guinea pig lung slices; 1 µM Fenoterol, -Log [MCh] 2.5
  airway area in MCh concentration-response (Figure 5A/5C): 0.0
Guinea pig lung slices; 1 µM Fenoterol, -Log [MCh] 3
  airway area in MCh concentration-response (Figure 5A/5C): 0.0
Guinea pig lung slices; 1 µM Fenoterol, -Log [MCh] 3.5
  airway area in MCh concentration-response (Figure 5A/5C): 0.0
Guinea pig lung slices; 1 µM Fenoterol, -Log [MCh] 4
  airway area in MCh concentration-response (Figure 5A/5C): 0.0
Guinea pig lung slices; 1 µM Fenoterol, -Log [MCh] 4.5
  airway area in MCh concentration-response (Figure 5A/5C): 0.0
Guinea pig lung slices; 1 µM Fenoterol, -Log [MCh] 7
  airway area in MCh concentration-response (Figure 5A/5C): 100.3 and 103.0 and 66.3 and 92.9 and 96.6
Guinea pig lung slices; 1 µM Fenoterol, -Log [MCh] 7.5
  airway area in MCh concentration-response (Figure 5A/5C): 101.4 and 100.4 and 106.4 and 96.3
Guinea pig lung slices; 1 µM Fenoterol, -Log [MCh] 8
  airway area in MCh concentration-response (Figure 5A/5C): 99.1 and 105.8 and 109.5 and 112.9
Guinea pig lung slices; [2]
  airway area in MCh concentration-response (Figure 5A/5C): 59.0 and 89.4 and 82.6 and 83.1 and 91.0 and 74.6
  MCh-induced airway constriction response (Figure 5D): 59.0 and 89.4 and 82.6 and 83.1 and 91.0 and 74.6
Guinea pig lung slices; 10 µM Fenoterol, -Log [MCh] 7
  airway area in MCh concentration-response (Figure 5A/5C): 77.1 and 109.6 and 109.2 and 101.3 and 91.9
  MCh-induced airway constriction response (Figure 5D): 77.1 and 109.6 and 109.2 and 101.3 and 91.9
Guinea pig lung slices; [3]
  airway area in MCh concentration-response (Figure 5A/5C): 94.2 and 110.7 and 102.7 and 105.1
  MCh-induced airway constriction response (Figure 5D): 94.2 and 110.7 and 102.7 and 105.1
Guinea pig lung slices; 10 µM Fenoterol, -Log [MCh] 8
  airway area in MCh concentration-response (Figure 5A/5C): 106.3 and 110.5 and 104.8
  MCh-induced airway constriction response (Figure 5D): 106.3 and 110.5 and 104.8
Guinea pig lung slices; 100 µM Fenoterol, -Log [MCh] 6.5
  MCh-induced airway constriction response (Figure 5D): 82.5 and 88.6 and 98.9 and 92.2 and 82.0
Guinea pig lung slices; 100 µM Fenoterol, -Log [MCh] 7
  MCh-induced airway constriction response (Figure 5D): 98.1 and 101.4 and 98.8 and 109.0 and 104.9
Guinea pig lung slices; 100 µM Fenoterol, -Log [MCh] 7.5
  MCh-induced airway constriction response (Figure 5D): 106.4 and 100.0 and 110.6 and 99.9
Guinea pig lung slices; 100 µM Fenoterol, -Log [MCh] 8
  MCh-induced airway constriction response (Figure 5D): 101.0 and 105.4 and 99.3 and 99.7
Guinea pig lung slices; read-out: MCh EC50, 1 μM Fenoterol
  EC50: 370 ± 80 nM
Guinea pig lung slices; read-out: MCh EC50, 10 μM Fenoterol
  EC50: 560 ± 30 nM
Guinea pig lung slices; read-out: MCh EC50, 100 μM Fenoterol
  EC50: 1000 ± 150 nM
Guinea pig β2AR; Log [FEN] (M) -4.49485
  125I-CYP binding, FEN competition curve (Figure 4D): 3.006 and 3.081 and 4.379 and 2.482
Guinea pig β2AR; Log [FEN] (M) -5.09691
  125I-CYP binding, FEN competition curve (Figure 4D): 10.5632 and 11.6008 and 14.5744 and 11.1845
Guinea pig β2AR; Log [FEN] (M) -5.69897
  125I-CYP binding, FEN competition curve (Figure 4D): 27.5943 and 31.6003 and 36.8549 and 31.4566
Guinea pig β2AR; Log [FEN] (M) -6.30103
  125I-CYP binding, FEN competition curve (Figure 4D): 58.2352 and 64.6742 and 67.2527 and 62.2696
Guinea pig β2AR; Log [FEN] (M) -6.90309
  125I-CYP binding, FEN competition curve (Figure 4D): 83.5341 and 84.3533 and 88.9652 and 87.8637
Guinea pig β2AR; Log [FEN] (M) -7.50515
  125I-CYP binding, FEN competition curve (Figure 4D): 93.701 and 97.0547 and 97.6505 and 97.0492
Guinea pig β2AR; Log [FEN] (M) -8.10721
  125I-CYP binding, FEN competition curve (Figure 4D): 100.713 and 99.5295 and 100.092
Guinea pig β2AR; Log [FEN] (M) -8.70927
  125I-CYP binding, FEN competition curve (Figure 4D): 98.7203 and 100.799 and 100.482
Guinea pig β2AR; Log [FEN] (M) -9.31133
  125I-CYP binding, FEN competition curve (Figure 4D): 101.392 and 100.992 and 100.128
Guinea pig β2AR; Log [FEN] (M) -9.91339
  125I-CYP binding, FEN competition curve (Figure 4D): 99.9817 and 101.061 and 100.058 and 101.342
[1]; [OVA] 0.001 ng/ml
  OVA-induced airway constriction response (Figure 6): 100.0 and 98.0 and 100.9
[1]; [OVA] 0.01 ng/ml
  OVA-induced airway constriction response (Figure 6): 100.0 and 105.5 and 96.2 and 100.8
[1]; [OVA] 0.1 ng/ml
  OVA-induced airway constriction response (Figure 6): 100 and 99.0
[1]; [OVA] 1 ng/ml
  OVA-induced airway constriction response (Figure 6): 100.0 and 109.4 and 99.5 and 95.4
[1]; [OVA] 10 ng/ml
  OVA-induced airway constriction response (Figure 6): 109.1 and 98.9 and 69.5
